Laboratory results reported in US8470847B2, “Derivatives of 7-alkynyl-1,8-naphthyridones, preparation method thereof and use of same in therapeutics” (Sanofi, priority 2007, dated 2013).

Biological target: VEGFR-3 (Homo sapiens (Human), UniProt P35916)
Sequence (P35916 845-1173): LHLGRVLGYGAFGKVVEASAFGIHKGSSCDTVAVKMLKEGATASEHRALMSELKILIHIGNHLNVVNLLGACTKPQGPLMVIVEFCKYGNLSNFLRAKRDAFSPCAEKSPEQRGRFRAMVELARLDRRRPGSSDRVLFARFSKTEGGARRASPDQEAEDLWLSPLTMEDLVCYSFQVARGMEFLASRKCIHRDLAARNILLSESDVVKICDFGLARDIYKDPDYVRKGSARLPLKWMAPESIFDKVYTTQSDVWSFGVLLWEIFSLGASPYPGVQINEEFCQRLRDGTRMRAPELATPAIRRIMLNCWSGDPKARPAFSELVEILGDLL
Assay: Measurement of the tyrosine kinase activity of VEGFR-3 by ELISA
Assay type: biochemical
Details: VEGFR-3-TK, poly Glu-Tyr substrate, 30 μM ATP
Description: Measurement of the Tyrosine Kinase Activity of VEGFR-3 by ELISA
The enzymatic activity of VEGFR-3 is evaluated on an ELISA assay by measuring the intensity of phosphorylation of the substrate poly Glu-Tyr. […] The plate is then covered with an adhesive film and incubated overnight at 37° C. The following day, the wells are emptied by turning the plate over, washed by adding 300 μl of buffer solution (PBS+0.05% Tween 20) and dried by further incubation of the plate for 2 h at 37° C. A 90 μl reaction mixture is deposited onto each well. […] The plates are then incubated with gentle agitation at ambient temperature for 30 min. After 3 rinses with the buffer solution (300 μl/well per wash), 100 μl of anti-phosphotyrosine-HRP antibody ( 1/30 000) are added to each well and the plates are again incubated for 30 min at ambient temperature with gentle agitation. […] The total activity is evaluated by the difference in optical density obtained on samples incubated in the presence (stimulated) and in the absence (non-stimulated) of VEGFR-3.
Work on CCn1c(N)c(C(=O)NC)c(=O)c2ccc(C#CC(C)(O)COC)nc21 (single isomer, unassigned; (-)) [Compound 72, (−)-2-amino-1-ethyl-7-(3-hydroxy-4-methoxy-3-methylbut-1-yn-1-yl)-N-methyl-4-oxo-1,4-dihydro-1,8-naphthyridine-3-carboxamide] yielded an IC50 of 23 nM.

Tested on: not given
Assay: not given
Details: not given
In the case of CNC(=O)c1c(N)n(Cc2ccccn2)c2nc(C#CC(C)(O)COC)ccc2c1=O (racemic), the melting point is reported as 169 °C. CCn1c(N)c(C(=O)NC)c(=O)c2ccc(C#CC3(O)CCOC3)nc21 (racemic) [Compound 7, (±)-2-Amino-1-ethyl-7-[(3-hydroxytetrahydrofuran-3-yl)ethynyl]-N-methyl-4-oxo-1,4-dihydro-1,8-naphthyridine-3-carboxamide] gave a melting point of 253 °C. Compound CCn1c(N)c(C(=O)NC)c(=O)c2ccc(C#CC(O)C3CCCC3)nc21 (racemic) [Compound 10, (±)-2-Amino-7-(3-cyclopentyl-3-hydroxyprop-1-yn-1-yl)-1-ethyl-N-methyl-4-oxo-1,4-dihydro-1,8-naphthyridine-3-carboxamide] has a melting point of 253 °C. CCn1c(N)c(C(=O)NC)c(=O)c2ccc(C#CC(C)(O)c3cnccn3)nc21 (racemic) [Compound 48, (±)-2-Amino-1-ethyl-7-(3-hydroxy-3-pyrazin-2-ylbut-1-yn-1-yl)-N-methyl-4-oxo-1,4-dihydro-1,8-naphthyridine-3-carboxamide] showed a melting point of 271 °C. In the case of CCn1c(N)c(C(=O)NC)c(=O)c2ccc(C#CC(O)(COC)C3CC3)nc21 (racemic) [Compound 50, (±)-2-Amino-7-(3-cyclopropyl-3-hydroxy-4-methoxybut-1-yn-1-yl)-1-ethyl-N-methyl-4-oxo-1,4-dihydro-1,8-naphthyridine-3-carboxamide], the melting point is reported as 208 °C. CNC(=O)c1c(N)n(C2CCCC2)c2nc(C#CC(C)(O)CO)ccc2c1=O (racemic) [Compound 53, (±)-2-Amino-1-cyclopentyl-7-(3,4-dihydroxy-3-methylbut-1-yn-1-yl)-N-methyl-4-oxo-1,4-dihydro-1,8-naphthyridine-3-carboxamide] showed a melting point of 210.5 °C.
